Experiments:
Assay in all cases: KINOMEscan
Settings in all cases: read-out: Percent Control
PRKCH = PRKCH (Homo sapiens, UniProt P24723)
Description: (§1) The kinase engagement assay (KINOMEscan®) was performed by DiscoverX assessing binding abilities toward a set of kinases.

LRRK2 = LRRK2 (Homo sapiens, UniProt Q5S007)
Description: as §1

BIKE = BIKE (Homo sapiens, UniProt Q9NSY1)
Description: as §1

[1] = molecular target: RSK2(Kin.Dom.2-C-terminal) (Homo sapiens, UniProt P51812)
Description: as §1

PRKD1 = PRKD1 (Homo sapiens, UniProt Q15139)
Description: as §1

BLK = BLK (Homo sapiens, UniProt P51451)
Description: as §1

MEK3 = MEK3 (Homo sapiens, UniProt P46734)
Description: as §1

NEK1 = NEK1 (Homo sapiens, UniProt Q96PY6)
Description: as §1

MAST1 = MAST1 (Homo sapiens, UniProt Q9Y2H9)
MAST1, sequence (Q9Y2H9 whole entry): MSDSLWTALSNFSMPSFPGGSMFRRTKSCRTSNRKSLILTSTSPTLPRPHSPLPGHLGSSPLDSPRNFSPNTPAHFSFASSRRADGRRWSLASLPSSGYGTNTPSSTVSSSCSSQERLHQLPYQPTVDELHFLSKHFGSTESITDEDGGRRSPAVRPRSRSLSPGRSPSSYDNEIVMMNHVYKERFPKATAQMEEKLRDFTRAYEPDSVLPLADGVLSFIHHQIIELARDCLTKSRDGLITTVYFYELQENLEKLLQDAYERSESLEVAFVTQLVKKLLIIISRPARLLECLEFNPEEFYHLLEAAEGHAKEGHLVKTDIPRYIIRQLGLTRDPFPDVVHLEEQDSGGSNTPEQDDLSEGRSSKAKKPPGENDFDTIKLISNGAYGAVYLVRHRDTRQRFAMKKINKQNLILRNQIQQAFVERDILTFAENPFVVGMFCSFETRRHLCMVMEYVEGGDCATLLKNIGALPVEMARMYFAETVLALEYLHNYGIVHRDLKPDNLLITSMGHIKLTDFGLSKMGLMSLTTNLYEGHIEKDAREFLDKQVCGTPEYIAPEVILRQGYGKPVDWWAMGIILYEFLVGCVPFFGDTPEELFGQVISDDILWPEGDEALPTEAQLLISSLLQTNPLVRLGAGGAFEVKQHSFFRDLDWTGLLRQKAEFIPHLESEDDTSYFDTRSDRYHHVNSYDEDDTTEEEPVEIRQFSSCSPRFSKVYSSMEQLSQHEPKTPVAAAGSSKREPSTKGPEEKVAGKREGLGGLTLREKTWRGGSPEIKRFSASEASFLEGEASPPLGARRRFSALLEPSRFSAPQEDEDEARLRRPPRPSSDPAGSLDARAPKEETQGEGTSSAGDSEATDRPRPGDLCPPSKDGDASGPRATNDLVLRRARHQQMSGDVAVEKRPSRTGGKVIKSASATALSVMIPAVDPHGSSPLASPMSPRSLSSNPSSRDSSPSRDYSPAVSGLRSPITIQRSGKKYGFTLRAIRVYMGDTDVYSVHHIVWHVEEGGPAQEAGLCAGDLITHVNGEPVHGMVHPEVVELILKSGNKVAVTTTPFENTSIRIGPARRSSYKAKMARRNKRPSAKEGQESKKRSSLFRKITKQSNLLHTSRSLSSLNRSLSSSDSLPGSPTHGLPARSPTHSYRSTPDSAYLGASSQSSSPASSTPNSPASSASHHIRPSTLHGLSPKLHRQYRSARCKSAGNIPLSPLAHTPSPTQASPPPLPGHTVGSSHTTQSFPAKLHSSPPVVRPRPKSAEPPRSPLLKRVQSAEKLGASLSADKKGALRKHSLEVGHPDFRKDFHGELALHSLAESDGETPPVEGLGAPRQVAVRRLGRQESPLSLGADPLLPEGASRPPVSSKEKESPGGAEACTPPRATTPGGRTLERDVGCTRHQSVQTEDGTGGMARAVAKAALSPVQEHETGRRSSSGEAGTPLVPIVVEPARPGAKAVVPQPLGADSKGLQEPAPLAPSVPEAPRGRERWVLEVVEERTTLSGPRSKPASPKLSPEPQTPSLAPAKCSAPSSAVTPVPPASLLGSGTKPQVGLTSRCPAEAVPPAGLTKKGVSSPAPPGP
Description: as §1

PLK4 = PLK4 (Homo sapiens, UniProt O00444)
Description: as §1

MLK1 = MLK1 (Homo sapiens, UniProt P80192)
Description: as §1

PRKX = PRKX (Homo sapiens, UniProt P51817)
Description: as §1

[2] = molecular target: EGFR(L747-E749del, A750P) (Homo sapiens, UniProt P00533, A750P/DEL747-749)
Description: as §1

TSSK3 = TSSK3 (Homo sapiens, UniProt Q96PN8)
TSSK3, sequence (Q96PN8 whole entry): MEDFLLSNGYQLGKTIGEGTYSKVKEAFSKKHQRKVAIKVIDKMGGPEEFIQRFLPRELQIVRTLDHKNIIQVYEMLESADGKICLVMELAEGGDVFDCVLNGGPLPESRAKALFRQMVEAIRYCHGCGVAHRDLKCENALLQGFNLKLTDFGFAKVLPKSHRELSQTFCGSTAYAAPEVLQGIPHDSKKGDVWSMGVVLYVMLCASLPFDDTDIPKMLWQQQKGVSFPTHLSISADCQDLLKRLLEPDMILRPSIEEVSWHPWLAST
Description: as §1

LKB1 = LKB1 (Homo sapiens, UniProt Q15831)
Description: as §1

DCAMKL2 = DCAMKL2 (Homo sapiens, UniProt Q8N568)
Description: as §1

SRPK3 = SRPK3 (Homo sapiens, UniProt Q9UPE1)
Description: as §1

CAMK2D = CAMK2D (Homo sapiens, UniProt Q13557)
Description: as §1

EGFR(L858R, T790M) = EGFR(L858R, T790M) (Homo sapiens, UniProt P00533, L858R/T790M)
Description: as §1

CDC2L5 = molecular target: T1, CDC2L5 (Homo sapiens, UniProt Q14004); format: binding
T1 construct: purchased DiscoverX
T1 sequence (Q14004 whole entry): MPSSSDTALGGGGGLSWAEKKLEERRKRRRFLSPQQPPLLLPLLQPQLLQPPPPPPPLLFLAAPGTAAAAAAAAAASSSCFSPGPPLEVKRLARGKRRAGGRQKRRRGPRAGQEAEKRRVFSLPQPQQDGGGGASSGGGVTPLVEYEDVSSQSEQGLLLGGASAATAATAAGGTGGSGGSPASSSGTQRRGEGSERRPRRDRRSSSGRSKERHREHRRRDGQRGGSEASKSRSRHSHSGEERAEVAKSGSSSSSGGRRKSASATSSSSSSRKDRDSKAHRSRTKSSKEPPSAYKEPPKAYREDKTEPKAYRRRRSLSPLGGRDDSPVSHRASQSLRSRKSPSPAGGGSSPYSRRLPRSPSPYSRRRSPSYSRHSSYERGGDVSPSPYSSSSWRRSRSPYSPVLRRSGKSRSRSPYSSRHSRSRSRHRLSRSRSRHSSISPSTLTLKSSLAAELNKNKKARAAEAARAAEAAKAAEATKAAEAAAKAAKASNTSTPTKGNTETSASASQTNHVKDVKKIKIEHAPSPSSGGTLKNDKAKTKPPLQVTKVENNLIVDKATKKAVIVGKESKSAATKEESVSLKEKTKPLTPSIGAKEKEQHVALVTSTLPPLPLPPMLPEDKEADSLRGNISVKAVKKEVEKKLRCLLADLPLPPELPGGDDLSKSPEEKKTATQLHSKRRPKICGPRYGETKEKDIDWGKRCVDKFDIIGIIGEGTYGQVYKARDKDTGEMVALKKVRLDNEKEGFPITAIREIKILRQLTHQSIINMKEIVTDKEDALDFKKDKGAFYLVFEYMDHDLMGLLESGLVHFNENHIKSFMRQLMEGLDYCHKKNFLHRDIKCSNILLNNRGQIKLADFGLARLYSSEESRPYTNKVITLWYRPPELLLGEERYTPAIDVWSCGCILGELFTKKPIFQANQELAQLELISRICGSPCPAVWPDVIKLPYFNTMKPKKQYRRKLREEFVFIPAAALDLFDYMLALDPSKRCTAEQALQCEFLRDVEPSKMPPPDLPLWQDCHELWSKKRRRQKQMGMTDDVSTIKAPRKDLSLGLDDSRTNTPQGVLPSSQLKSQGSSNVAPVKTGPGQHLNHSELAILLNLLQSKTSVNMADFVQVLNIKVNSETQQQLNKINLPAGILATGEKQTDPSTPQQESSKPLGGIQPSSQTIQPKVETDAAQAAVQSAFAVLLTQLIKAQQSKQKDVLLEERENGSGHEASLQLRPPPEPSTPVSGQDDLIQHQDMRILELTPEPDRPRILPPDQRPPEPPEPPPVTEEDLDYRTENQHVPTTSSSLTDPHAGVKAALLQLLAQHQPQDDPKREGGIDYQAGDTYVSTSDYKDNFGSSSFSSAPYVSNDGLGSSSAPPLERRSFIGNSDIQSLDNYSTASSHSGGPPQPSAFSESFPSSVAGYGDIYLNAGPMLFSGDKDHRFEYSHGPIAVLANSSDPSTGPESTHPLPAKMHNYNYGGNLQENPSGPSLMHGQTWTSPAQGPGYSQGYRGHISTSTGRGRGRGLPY

KIT(V559D) = KIT(V559D) (Homo sapiens, UniProt P10721, V559D)
Description: as §1

EGFR(S752-1759del) = EGFR(S752-1759del) (Homo sapiens, UniProt P00533, DEL752-759)
EGFR(S752-1759del), sequence (P00533 with tags, fused parts or gaps DEL752-759 limits assumed): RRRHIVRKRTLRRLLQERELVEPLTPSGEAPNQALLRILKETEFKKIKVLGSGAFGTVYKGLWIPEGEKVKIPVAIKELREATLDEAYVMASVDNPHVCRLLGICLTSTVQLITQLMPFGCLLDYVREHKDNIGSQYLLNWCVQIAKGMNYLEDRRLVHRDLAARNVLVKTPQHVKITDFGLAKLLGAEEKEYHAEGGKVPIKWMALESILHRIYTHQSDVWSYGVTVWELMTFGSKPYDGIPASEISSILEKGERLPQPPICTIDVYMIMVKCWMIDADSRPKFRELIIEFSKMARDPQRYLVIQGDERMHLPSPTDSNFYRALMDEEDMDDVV
Description: as §1

ACVR2A = ACVR2A (Homo sapiens, UniProt P27037)
Description: as §1

SNARK = SNARK (Homo sapiens, UniProt Q9H093)
Description: as §1

ADCK4 = ADCK4 (Homo sapiens, UniProt Q96D53)
Description: as §1

GCN2(Kin.Dom.2, S808G) = GCN2(Kin.Dom.2, S808G) (Homo sapiens, UniProt Q9P2K8, S808G)
GCN2(Kin.Dom.2, S808G), sequence (Q9P2K8 590-1001 S808G limits assumed): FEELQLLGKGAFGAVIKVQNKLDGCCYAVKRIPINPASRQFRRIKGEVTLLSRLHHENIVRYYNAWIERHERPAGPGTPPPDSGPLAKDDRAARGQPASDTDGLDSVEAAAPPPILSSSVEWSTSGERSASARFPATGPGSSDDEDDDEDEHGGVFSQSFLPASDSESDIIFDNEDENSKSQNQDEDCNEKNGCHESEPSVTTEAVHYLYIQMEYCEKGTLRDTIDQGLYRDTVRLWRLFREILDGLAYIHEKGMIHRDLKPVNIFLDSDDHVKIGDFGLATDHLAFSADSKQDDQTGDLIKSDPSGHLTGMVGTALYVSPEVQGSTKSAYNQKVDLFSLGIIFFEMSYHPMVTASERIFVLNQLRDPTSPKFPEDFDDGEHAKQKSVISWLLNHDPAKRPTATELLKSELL
Description: as §1

OSR1 = OSR1 (Homo sapiens, UniProt O95747)
Description: as §1

CDKL5 = CDKL5 (Homo sapiens, UniProt O76039)
CDKL5, sequence (O76039 whole entry): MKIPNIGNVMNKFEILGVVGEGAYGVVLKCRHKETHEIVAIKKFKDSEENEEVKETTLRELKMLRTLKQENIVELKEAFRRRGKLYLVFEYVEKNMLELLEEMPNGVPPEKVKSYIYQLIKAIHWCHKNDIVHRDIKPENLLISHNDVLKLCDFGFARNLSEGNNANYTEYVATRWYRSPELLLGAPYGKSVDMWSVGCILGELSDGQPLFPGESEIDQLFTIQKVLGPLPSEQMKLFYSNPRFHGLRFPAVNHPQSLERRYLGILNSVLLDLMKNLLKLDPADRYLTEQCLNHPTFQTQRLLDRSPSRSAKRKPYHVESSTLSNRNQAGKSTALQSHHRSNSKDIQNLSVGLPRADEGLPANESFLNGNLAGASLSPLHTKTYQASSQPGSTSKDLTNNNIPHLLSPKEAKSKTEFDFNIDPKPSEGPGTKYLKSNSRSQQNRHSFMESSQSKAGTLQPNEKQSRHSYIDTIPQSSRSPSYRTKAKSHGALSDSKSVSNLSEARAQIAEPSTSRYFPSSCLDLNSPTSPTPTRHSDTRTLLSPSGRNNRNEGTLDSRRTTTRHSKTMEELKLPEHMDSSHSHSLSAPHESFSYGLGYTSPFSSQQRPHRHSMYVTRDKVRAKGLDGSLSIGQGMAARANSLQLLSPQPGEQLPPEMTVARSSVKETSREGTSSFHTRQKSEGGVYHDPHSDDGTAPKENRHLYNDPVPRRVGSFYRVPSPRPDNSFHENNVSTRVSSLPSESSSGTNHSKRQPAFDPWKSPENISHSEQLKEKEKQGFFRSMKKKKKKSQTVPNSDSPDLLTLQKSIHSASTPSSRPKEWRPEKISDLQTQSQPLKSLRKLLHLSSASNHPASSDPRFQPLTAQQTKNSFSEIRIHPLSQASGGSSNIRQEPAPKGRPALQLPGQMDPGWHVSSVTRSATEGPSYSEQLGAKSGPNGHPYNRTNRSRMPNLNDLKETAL
Description: as §1

HIPK3 = HIPK3 (Homo sapiens, UniProt Q9H422)
Description: as §1

MAPKAPK2 = MAPKAPK2 (Homo sapiens, UniProt P49137)
Description: as §1

MLK3 = MLK3 (Homo sapiens, UniProt Q16584)
Description: as §1

CLK1 = CLK1 (Homo sapiens, UniProt P49759)
Description: as §1

IGF1R = IGF1R (Homo sapiens, UniProt P08069)
Description: as §1

DRAK2 = DRAK2 (Homo sapiens, UniProt O94768)
Description: as §1

PIKFYVE = PIKFYVE (Homo sapiens, UniProt Q9Y2I7)
Description: as §1

[3] = molecular target: ABL1(H396P)-phosphorylated (Homo sapiens, UniProt P00519, H396P)
Description: as §1

INSRR = INSRR (Homo sapiens, UniProt P14616)
Description: as §1

O=C1CCC(N2C(=O)c3cccc(NCCCCCCCCNC(=O)N4CC[C@H](NC5=Nc6cc(F)ccc6N(CC(F)F)c6ccc(Cl)cc65)C4)c3C2=O)C(=O)N1 (stereo partly drawn) [BJG-05-039, (3S)-3-((2-Chloro-5-(2,2-difluoroethyl)-8-fluoro-5H-dibenzo[b,e][1,4]diazepin-11-yl)amino)-N-(8-((2-(2,6-dioxopiperidin-3-yl)-1,3-dioxoisoindolin-4-yl)amino)octyl)pyrrolidine-1-carboxamide]
remaining binding at 10 µM (PRKCH): 94%
remaining binding at 10 µM (LRRK2): 80%
remaining binding at 10 µM (BIKE): 74%
remaining binding at 10 µM [1]: 87%
remaining binding at 10 µM (PRKD1): 81%
remaining binding at 10 µM (BLK): 73%
remaining binding at 10 µM (MEK3): 94%
remaining binding at 10 µM (NEK1): 83%
remaining binding at 10 µM (MAST1): 71%
remaining binding at 10 µM (PLK4): 85%
remaining binding at 10 µM (MLK1): 83%
remaining binding at 10 µM (PRKX): 48%
remaining binding at 10 µM [2]: 78%
remaining binding at 10 µM (TSSK3): 100%
remaining binding at 10 µM (LKB1): 89%
remaining binding at 10 µM (DCAMKL2): 92%
remaining binding at 10 µM (SRPK3): 93%
remaining binding at 10 µM (CAMK2D): 45%
remaining binding at 10 µM (EGFR(L858R, T790M)): 86%
remaining binding at 10 µM (CDC2L5): 82%
remaining binding at 10 µM (KIT(V559D)): 81%
remaining binding at 10 µM (EGFR(S752-1759del)): 67%
remaining binding at 10 µM (ACVR2A): 51%
remaining binding at 10 µM (SNARK): 96%
remaining binding at 10 µM (ADCK4): 63%
remaining binding at 10 µM (GCN2(Kin.Dom.2, S808G)): 56%
remaining binding at 10 µM (OSR1): 100%
remaining binding at 10 µM (CDKL5): 100%
remaining binding at 10 µM (HIPK3): 100%
remaining binding at 10 µM (MAPKAPK2): 60%
remaining binding at 10 µM (MLK3): 88%
remaining binding at 10 µM (CLK1): 57%
remaining binding at 10 µM (IGF1R): 70%
remaining binding at 10 µM (DRAK2): 58%
remaining binding at 10 µM (PIKFYVE): 79%
remaining binding at 10 µM [3]: 100%
remaining binding at 10 µM (INSRR): 65%
